Patent publication US20220401452A1, “USE OF INHIBITORS OF ENHANCER OF ZESTE HOMOLOG 2” (The Board Of Regents of The University of Texas System, priority 2019, published 2022)

Legend:
[1] = test system: 668 cancer cells lines of various types; conditions: CTRP data, cited from earlier work
DU145 cells [2] = assay: Gene expression by RNA-Seq in DU145 cells; format: cell-based, human; conditions: 5 μM, 72 hrs
Procedure: (§1) Blue bars represent the percentage of genes in each specific functional category. The red line represents values of the false discovery rate (FDR) for the particular GO term. […] Two analyses were carried out to rule out the possible off-targeted effect of EZH2i on gene regulation. First, transcriptional profiles were compared in abl being treated with either EZH2i or in which EZH2 had been silenced using RNA interference (RNAi). Pharmacologic and genetic inhibition of EZH2 shared highly similar gene expression patterns.
(§2) Analysis of EZH2 Inhibitor Mediated Gene Expression by RNA-Seq. […] RNA-seq library was prepared using Illumina True-seq RNA sample preparation kit and sequenced to 50 bp using Illumina Hi-seq platform. RNA-seq data was mapped to human genome (hg19) using TopHat version 2.0.6. […] Differentially expressed genes were first filtered using LFC>0.5 or <−0.5, and then top 200 genes were selected through ranking by their p-values. The authentic target genes of EZH2 in abl cells were defined as those showing similar expression changes upon either EZH2 silencing or inhibitor treatment.

abl cells [3] = assay: Gene expression by RNA-Seq in abl cells; format: cell-based, human; conditions: 5 μM, 72 hrs
Procedure: as §1, §2

[4] = test system: C4-2B, LAPC4-CR and LNCaP-AI cells; assay: RT-qPCR of selected genes in C4-2B, LAPC4-CR and LNCaP-AI; format: cell-based, human; conditions: 5 μM, 72 hrs
Source text: The expression of these genes was examined in three other EZH2i-sensitive CRPC cell lines: C4-2B, LAPC4-CR and LNCaP-AI. FIG. 2D is a heat map of quantitative real-time RT-qPCR results showing changes in mRNA levels of selected gene in three prostate cancer cell lines (C4-2B, LAPC4-CR, and LNCaP-AI). […] EZH2-activated genes and EZH2-repressed genes are grouped together. […] Numbers, triplicates of samples from control or treatment group.
RNA isolation and RT-qPCR. RNA was extracted and purified using the TRIzol Reagent combined with RNeasy Mini Kit (Qiagen) according to manufacturer's protocols. 2 μg of total RNAs were then used for cDNA synthesis using High Capacity cDNA Reverse Transcription Kit (Applied Biosystems). Real-time quantitative RT-PCR was performed, and gene expression was calculated as described previously, using the formula 2-ΔΔCt relative to the level of GAPDH as the internal control.

DU145 cells [5] = assay: Growth curve of DU145 cells; format: cell-based, human; conditions: FIG. 9A
Procedure: Genetic inhibition of EZH2 suppressed growth of CRPC cells better than that of androgen-dependent prostate cancer cells. As EZH2 is a druggable enzyme with available small-molecule inhibitors, the efficacy of EZH2-targeting drugs was assessed in prostate cancer cells. […] Cells were grouped based on the basic characteristics. ADPC is androgen-dependent prostate cancer, and CRPC is castration-resistant prostate cancer. Concentrations as low as 500 nM of the EZH2 inhibitors (EZH2i) greatly retarded the growth of castration-resistant abl cells. […] Relatively higher doses of EZH2i were required to suppress the androgen-dependent LNCaP cells. […] This was consistent with a previous report that neither PC3 nor DU145 requires EZH2 for continued growth.

[6] = test system: H3K27 methylation in prostate cell lines; assay: Western blot of H3K27 methylation levels in prostate cell lines; format: cell-based, human; conditions: all tested prostate cell lines; 1 or 5 μM
Source text: In view of the canonical function of EZH2 in catalyzing H3K27me3, the mechanisms of how repressive chromatin mark contribute to the growth and gene inhibitory effects of EZH2i were investigated. […] Discrepancies between EZH2i-induced H3K27me3 reduction and cell insensitivity to EZH2i were also reported in lymphoma cells.

CWR22Rv1 xenografts = assay: Test of EZH2 inhibitors in CWR22Rv1 xenograft mouse model; format: in vivo, castrated nude mice
Procedure: FIG. 1F is a growth curve of xenograft tumors in castrated nude mice injected with CWR22Rv1 cells receiving vehicle (Veh) or GSK126, at the indicated doses.
Test of EZH2 Inhibitors in Xenograft Mouse Model. Male nude mice (Taconic) were castrated after 3 days of accommodation. CWR22Rv1 xenografts were established in the flanks of mice by injecting ˜2 million cells in 50% Matrigel (BD Biosciences). […] Tumors were measured 3 times every week and harvested after 3 weeks. Frozen samples were subjected to RT-qPCR and immunoblotting to study the expression of selected genes. All animal protocols were approved by the Beth Israel Deaconess Institutional Animal Care and Use Committee, and the experiments were performed in accordance with institutional and national guidelines.

LNCaP cells = assay: Alkaline comet assay after ionizing radiation in LNCaP cells; format: cell-based, human; conditions: 5 μM pretreatment 7 days, recovery 4 hrs
Procedure: (§3) EZH2i can be administered to sensitize CRPC cells to DNA damage repair (DDR) agents. To validate this, abl, LNCaP and DU145 cells were exposed to increasing doses of ionizing radiation (IR). […] FIG. 6A is a graphical representation of the alkaline comet assays in abl cells. Prostate cancer cells were pretreated with vehicle (DMSO) or 5 μM GSK126 (GSK) for 7 days, and then exposed to increasing dosages of ionizing radiation (IR) followed by recovery for 4 hrs. FIG. 6B is a set of photographic images of each IR dosage corresponding to the dosages in FIG. 6A. FIG. 6C is a graphical representation of the alkaline comet assays in LNCaP cells. […]
(§4) FIG. 15A is a graphical representation of the alkaline comet assay results in abl cells after pretreatment with vehicle (DMSO) or 5 μM GSK126 (GSK) for 7 days and then being exposed to 5 gray (Gy) ionizing radiation (IR) followed by recovery at indicated time points (Quantification of the results using “Olive Tail Moment” parameter). […] FIG. 15C is a graphical representation of the alkaline comet assay results in LNCaP cells after pretreatment with vehicle (DMSO) or 5 μM GSK126 (GSK) for 7 days and then being exposed to 5 gray (Gy) ionizing radiation (IR) followed by recovery at indicated time points (Quantification of the results using “Olive Tail Moment” parameter). […]

abl cells [7] = assay: Alkaline comet assay after ionizing radiation in abl cells; format: cell-based, human; conditions: 5 μM pretreatment 7 days
Procedure: as §3, §4

DU145 cells [8] = assay: Alkaline comet assay after ionizing radiation in DU145 cells; format: cell-based, human; conditions: 5 μM pretreatment 7 days, recovery 4 hrs
Procedure: as §3, §4

Compound | potency by EZH2 mutation status ([1]; GOF vs LOF p=0.2705, GOF vs None p=1.000) | sensitivity of cell lines by expression of DNA repair genes ([1]; top 25% highest vs bottom 25% lowest expression) | gene expression pattern in EZH2i-insensitive DU145 cells (DU145 cells [2]) | gene expression pattern in abl cells (abl cells [3]) | expression of EZH2-repressed genes [4] | inhibitory effect on growth of AR-null DU145 (DU145 cells [5]) | total H3K27 di- and tri-methylation levels [6] | xenograft tumor growth (CWR22Rv1 xenografts; CWR22Rv1 subcutaneous xenografts, castrated mice, daily injection, 21 days of treatment) | mRNA and protein levels of EZH2-activated genes in xenograft tumor tissues (CWR22Rv1 xenografts; CWR22Rv1 xenografts) | difference in sensitivity to ionizing radiation (comet assay) (LNCaP cells) | DNA damage repair after 5 Gy IR (Olive Tail Moment over recovery time) (abl cells [7]) | sensitivity to increasing doses of ionizing radiation (comet assay) (abl cells [7]; recovery 4 hrs) | difference in sensitivity to ionizing radiation (comet assay) (DU145 cells [8])
C[C@H]1CN([C@@H](C)CO)S(=O)(=O)c2ccc(C#CCC3CCCC3)cc2O[C@@H]1CN(C)Cc1ccc(C(=O)O)cc1 [BRD] | does not show higher potency | much more susceptible | – | – | – | – | – | – | – | – | – | – | –
CCN(c1cc(-c2ccc(CN3CCOCC3)cc2)cc(C(=O)NCc2c(C)cc(C)[nH]c2=O)c1C)C1CCOCC1 [EPZ-6438] | – | – | largely de-repressed genes | a large number of genes were significantly downregulated | upregulated EZH2-repressed genes to some extent | minimal | reduced total H3K27 di- and tri-methylation levels in a dose-dependent manner | – | – | – | – | – | –
CC[C@H](C)n1cc(C)c2c(C(=O)NCc3c(C)cc(C)[nH]c3=O)cc(-c3ccc(N4CCNCC4)nc3)cc21 [GSK126] | – | – | largely de-repressed genes | a large number of genes were significantly downregulated | upregulated EZH2-repressed genes to some extent | minimal | reduced total H3K27 di- and tri-methylation levels in a dose-dependent manner | significantly retarded tumor growth | consistent decrease | very minor | drastically delayed DNA damage repair | became much more sensitive to IR | non-existent
